The values below come from ChEMBL document CHEMBL1201862, “PubChem BioAssay data set” (2004).

For orientation: EC50 means the concentration that produces a half-maximal response. The AC50 is the midpoint of the concentration-response curve, whichever way the signal moves. Usually IC50 stands for the midpoint of a concentration-inhibition curve.

Assay [1] has as its target T1, Endoribonuclease toxin MazF (Escherichia coli K-12, UniProt P0AE70). Description: activation of MazEF endoribonuclease cleavage – biochemical, fluorescence, single-stranded RNA substrate, uHTS hits, dose response (AID 588481). The class given is functional.
Assay [2] addresses T1, Endoribonuclease toxin MazF. Put plainly: substrate-only fluorescence increase artefacts – biochemical, single-stranded RNase substrate, counter-screen for MazEF activator project, dose response (AID 588502). It is filed as functional.
Assay [3] has as its system BJ. Description: BJ-TERT fibroblast viability loss – cell-based, RAS-independent, luminescence, dose response (AID 1933). It is filed as functional. As to conditions: Homo sapiens.
A short description of assay [4]: NIH-3T3 fibroblast cytotoxicity, dose response, cytotoxicity control, cell-based, fluorescence, Alamar Blue, secondary assay (AID 2327).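 Further: NIH-3T3 mouse fibroblasts cultured with fluconazole at 8 µg/mL.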 The class given is functional.
For assay [5], the system named is A-375. Put plainly: proliferation inhibition in MITF-low A375 cells – cell-based, cherry-pick samples, set 2, counter-screen for MITF modulator project, dose response (AID 540335). It is filed as functional. As to conditions: Homo sapiens. (A counterscreen serves to expose hits that act by an unwanted route or on another target.)
Assay [6] concerns the target T2, Microphthalmia-associated transcription factor (Homo sapiens, UniProt O75030).
T2 sequence (O75030 whole entry): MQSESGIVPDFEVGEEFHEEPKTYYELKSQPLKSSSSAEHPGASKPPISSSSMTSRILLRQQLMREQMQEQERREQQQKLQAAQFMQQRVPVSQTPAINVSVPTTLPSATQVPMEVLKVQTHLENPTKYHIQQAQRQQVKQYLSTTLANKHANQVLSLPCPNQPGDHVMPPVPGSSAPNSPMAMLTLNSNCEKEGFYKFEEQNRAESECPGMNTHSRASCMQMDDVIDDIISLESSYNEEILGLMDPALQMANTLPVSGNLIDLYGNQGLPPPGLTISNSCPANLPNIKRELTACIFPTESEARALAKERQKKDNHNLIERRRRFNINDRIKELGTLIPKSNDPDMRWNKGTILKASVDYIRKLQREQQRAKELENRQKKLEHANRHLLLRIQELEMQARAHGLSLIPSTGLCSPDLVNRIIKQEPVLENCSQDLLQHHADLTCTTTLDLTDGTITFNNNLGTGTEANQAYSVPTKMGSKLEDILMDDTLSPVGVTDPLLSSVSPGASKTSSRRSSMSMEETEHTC
Put plainly: reducers of TRPM1 reporter luminescence, concentration series – cell-based, SK-MEL-5, cherry-picked, set 3, MITF inhibitor project, dose response (AID 493073).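 Further: SK-MEL-5 melanoma cells with luciferase driven by the MITF target TRPM1 promoter.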 The class given is functional.

The test system of assay [7] is BJ. Put plainly: BJ-TERT-LT-ST fibroblast viability loss – cell-based, RAS-independent, luminescence, dose response (AID 1935).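 Further: BJ fibroblasts immortalized with TERT plus LT and ST oncogenes.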 It is filed as functional. The note with it: Homo sapiens.
Another assay concerns INS1. Put plainly: INS-1E survival protection against cytokine death – cell-based, luminescence, retest, dose response (AID 449756).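 Further: cell death triggered by IL-1 beta plus TNF-alpha plus IFN-gamma mixture; protective hits raise ATP signal compared with cytokine alone wells.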 As to conditions: Rattus norvegicus. The class given is functional.
A short description of assay [8]: HEK-293T cell viability reduction – luminescence, B-cell screen hits, cytotoxicity control for BCR NF-kB inhibitor project, dose response (AID 489021).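 Further: HEK-293T cells carrying an NF-kB luciferase reporter; cells exposed to compound for about 14 hours before viability readout.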 It is filed as functional, cell-based.
Assay [9] is described as follows: fluconazole-exposed Candida albicans growth modulators – fluorescence, retest, confirmation (AID 2467). It is filed as functional, cell-based.
A short description of assay [10]: DRD fibroblast viability loss – cell-based, non-viral oncogenic, luminescence, dose response (AID 1934). The class given is functional. The note with it: Homo sapiens.
The subject of assay [11] is BJ. Description: cells. The class given is functional, cell-based. The note with it: Homo sapiens.
A further assay concerns Escherichia coli. Description: microbe, parasite or virus in culture.
The nature of assay [12]: Luminescence Cell-Based Dose Retest to Confirm Inhibitors of Cancer Stem Cells. [Related pubchem assays (depositor defined):AID2717, AID2721]. The note with it: Homo sapiens. It is filed as functional.
Assay [13] concerns the target T3, Short transient receptor potential channel 4 (Mus musculus, UniProt Q9QUQ5).
T3 sequence (Q9QUQ5 whole entry): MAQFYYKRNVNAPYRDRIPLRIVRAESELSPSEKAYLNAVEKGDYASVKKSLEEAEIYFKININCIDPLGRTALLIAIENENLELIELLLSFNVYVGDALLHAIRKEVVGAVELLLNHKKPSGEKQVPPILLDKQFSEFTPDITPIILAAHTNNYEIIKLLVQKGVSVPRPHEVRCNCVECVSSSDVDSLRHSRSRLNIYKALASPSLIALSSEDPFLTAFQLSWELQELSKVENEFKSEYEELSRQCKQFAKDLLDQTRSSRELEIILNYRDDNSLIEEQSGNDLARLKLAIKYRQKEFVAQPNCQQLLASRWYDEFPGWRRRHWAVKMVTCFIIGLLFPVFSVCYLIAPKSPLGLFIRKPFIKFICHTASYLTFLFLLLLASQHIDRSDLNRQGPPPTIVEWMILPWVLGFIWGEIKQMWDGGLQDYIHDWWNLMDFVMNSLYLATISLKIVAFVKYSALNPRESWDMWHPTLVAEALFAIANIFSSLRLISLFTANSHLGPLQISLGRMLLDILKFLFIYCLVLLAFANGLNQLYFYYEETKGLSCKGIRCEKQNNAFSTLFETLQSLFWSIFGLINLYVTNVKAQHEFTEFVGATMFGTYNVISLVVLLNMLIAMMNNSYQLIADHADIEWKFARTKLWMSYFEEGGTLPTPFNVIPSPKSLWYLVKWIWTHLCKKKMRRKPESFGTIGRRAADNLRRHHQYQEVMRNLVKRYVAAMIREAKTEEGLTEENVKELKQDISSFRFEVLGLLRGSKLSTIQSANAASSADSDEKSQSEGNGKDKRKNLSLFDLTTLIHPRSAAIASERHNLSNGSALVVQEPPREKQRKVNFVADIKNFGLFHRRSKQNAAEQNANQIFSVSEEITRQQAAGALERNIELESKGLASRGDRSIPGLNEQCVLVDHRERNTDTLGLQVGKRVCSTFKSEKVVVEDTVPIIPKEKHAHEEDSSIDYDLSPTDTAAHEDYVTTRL
Description: SAR Analysis for the identification of selective inhibits of the transient receptor potential cation channel C4 (TRPC4): Automated Electrophysiology_2. [Related pubchem assays (depositor defined):AID2256]. It is filed as functional.

For assay [14], the target named is T3, Short transient receptor potential channel 4. Put plainly: potency of mouse TRPC4 calcium flux blockers – cell-based, HEK293 TRPC4/mu-opioid, DAMGO stimulus, Fluo-4, dose response (AID 492994). It is filed as functional.
For another assay, the target named is Phospholipase D2 (Homo sapiens, UniProt O14939). Put plainly: cellular phospholipase D2 inhibition IC50 – cell-based, dose response (AID 602147).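 Further: cellular assay in HEK293 cells overexpressing GFP-tagged PLD2.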 It is filed as functional.
A further assay concerns the target Phospholipase D1 (Homo sapiens, UniProt Q13393). Put plainly: cellular phospholipase D1 inhibition IC50 – cell-based, dose response (AID 602151).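 Further: cellular PLD1 assay in Calu-1 cells stimulated with PMA.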 It is filed as functional.
The test system of assay [15] is A-375. Description: MITF: Counter assay: A375 proliferation Measured in Cell-Based System Using Plate Reader - 2084-03_Inhibitor_Dose_DryPowder_Activity. [Related pubchem assays (depositor defined):AID488944]. It is filed as functional. As to conditions: Homo sapiens.
Assay [16] has as its target T4, Heat shock factor protein 1 (Mus musculus, UniProt P38532).
T4 sequence (P38532 whole entry): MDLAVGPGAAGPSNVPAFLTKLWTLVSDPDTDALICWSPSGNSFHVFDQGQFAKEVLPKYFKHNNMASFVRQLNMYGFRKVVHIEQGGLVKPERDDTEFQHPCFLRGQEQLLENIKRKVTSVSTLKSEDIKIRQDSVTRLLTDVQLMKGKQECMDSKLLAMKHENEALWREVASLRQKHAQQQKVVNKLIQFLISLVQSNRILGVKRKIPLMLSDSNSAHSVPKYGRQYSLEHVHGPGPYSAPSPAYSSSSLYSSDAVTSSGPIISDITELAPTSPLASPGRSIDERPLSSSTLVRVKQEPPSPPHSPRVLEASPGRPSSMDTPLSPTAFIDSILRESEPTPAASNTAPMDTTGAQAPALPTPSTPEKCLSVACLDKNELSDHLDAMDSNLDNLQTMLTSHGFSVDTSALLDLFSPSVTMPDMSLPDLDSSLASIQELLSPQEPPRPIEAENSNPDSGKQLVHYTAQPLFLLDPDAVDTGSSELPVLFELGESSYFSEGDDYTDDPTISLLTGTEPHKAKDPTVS
Put plainly: decrease of HSF1-responsive luciferase luminescence – cell-based, NIH3T3, dose retest, confirmation (AID 2382).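 Further: NIH3T3 fibroblasts with HSF1-driven luciferase reporter stressed by proteasome inhibitor MG132; luminescence from HSF1-driven luciferase expression after 8 hours of MG132 stress.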 The class given is functional.

The target in assay [17] is DNA damage-inducible transcript 3 protein (Mus musculus, UniProt P35639). It is filed as functional, Cricetulus griseus.
For another assay, the target named is T5, X-box-binding protein 1 (Homo sapiens, UniProt P17861).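 Further: confirmatory dose-response counter-screen serving a CHOP assay.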
T5 sequence (P17861 whole entry): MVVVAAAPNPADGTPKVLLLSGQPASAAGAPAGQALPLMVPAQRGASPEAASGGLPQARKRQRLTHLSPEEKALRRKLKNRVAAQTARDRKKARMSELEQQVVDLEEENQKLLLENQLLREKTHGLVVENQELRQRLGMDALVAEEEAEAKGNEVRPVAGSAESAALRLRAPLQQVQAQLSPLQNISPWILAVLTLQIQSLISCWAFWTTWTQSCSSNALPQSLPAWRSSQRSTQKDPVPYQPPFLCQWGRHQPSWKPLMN
The class given is functional, Cricetulus griseus.

In assay [18] the target is CAAX prenyl protease 2 (Homo sapiens, UniProt Q9Y256). Description: inhibition of Ras-converting CAAX protease Rce1 – biochemical, yeast membranes, quenched-peptide fluorescence, cherry-pick, dose response (AID 588849).
Assay [19] has as its target CAAX prenyl protease 2 (Saccharomyces cerevisiae S288c, UniProt Q03530). The class given is biochemical.
Another assay has as its target Trypsin (Sus scrofa, UniProt P00761). Description: trypsin protease activity blockade – biochemical, quenched peptide fluorescence, cherry-pick, selectivity assay for Rce1 protease inhibitor project, dose response (AID 488789).

Activity calls are given as the source filed them.

T1 sequence (P0AE70 whole entry): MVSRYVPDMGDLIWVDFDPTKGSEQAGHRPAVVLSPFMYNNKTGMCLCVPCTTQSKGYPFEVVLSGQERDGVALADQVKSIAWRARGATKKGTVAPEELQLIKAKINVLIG
Sequence of CAAX prenyl protease 2 (Homo sapiens, UniProt Q9Y256) (Q9Y256 whole entry): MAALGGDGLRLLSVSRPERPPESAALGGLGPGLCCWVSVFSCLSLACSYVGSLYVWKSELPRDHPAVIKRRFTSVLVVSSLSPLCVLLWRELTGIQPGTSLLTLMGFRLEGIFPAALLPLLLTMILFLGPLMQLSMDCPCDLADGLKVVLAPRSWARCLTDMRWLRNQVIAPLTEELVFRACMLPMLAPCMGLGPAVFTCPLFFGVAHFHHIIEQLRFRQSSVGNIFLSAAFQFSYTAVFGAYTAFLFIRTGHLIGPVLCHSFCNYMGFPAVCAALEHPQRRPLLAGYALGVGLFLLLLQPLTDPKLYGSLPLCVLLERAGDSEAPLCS
Sequence of DNA damage-inducible transcript 3 protein (P35639 whole entry): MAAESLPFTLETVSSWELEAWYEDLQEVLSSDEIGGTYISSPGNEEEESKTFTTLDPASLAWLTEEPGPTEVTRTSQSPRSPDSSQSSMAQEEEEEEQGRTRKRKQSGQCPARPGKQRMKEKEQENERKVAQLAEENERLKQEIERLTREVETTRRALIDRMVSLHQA
Sequence of Trypsin (P00761 whole entry): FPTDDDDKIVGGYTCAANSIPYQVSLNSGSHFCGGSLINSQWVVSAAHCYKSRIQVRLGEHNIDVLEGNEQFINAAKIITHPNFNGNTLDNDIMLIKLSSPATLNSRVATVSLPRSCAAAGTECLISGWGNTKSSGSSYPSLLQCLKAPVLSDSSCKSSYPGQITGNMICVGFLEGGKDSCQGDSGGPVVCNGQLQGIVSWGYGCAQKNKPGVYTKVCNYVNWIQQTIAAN
Sequence of CAAX prenyl protease 2 (Saccharomyces cerevisiae S288c, UniProt Q03530) (Q03530 whole entry): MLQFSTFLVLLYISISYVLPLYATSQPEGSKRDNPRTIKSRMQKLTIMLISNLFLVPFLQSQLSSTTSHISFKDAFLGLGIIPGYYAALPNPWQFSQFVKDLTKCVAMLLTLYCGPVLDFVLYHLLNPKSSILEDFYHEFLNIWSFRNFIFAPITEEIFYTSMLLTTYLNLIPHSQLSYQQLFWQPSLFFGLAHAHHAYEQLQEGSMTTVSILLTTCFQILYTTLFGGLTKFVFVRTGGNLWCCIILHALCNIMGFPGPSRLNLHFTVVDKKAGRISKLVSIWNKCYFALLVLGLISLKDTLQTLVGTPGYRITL
Sequence of Phospholipase D1 (Q13393 whole entry): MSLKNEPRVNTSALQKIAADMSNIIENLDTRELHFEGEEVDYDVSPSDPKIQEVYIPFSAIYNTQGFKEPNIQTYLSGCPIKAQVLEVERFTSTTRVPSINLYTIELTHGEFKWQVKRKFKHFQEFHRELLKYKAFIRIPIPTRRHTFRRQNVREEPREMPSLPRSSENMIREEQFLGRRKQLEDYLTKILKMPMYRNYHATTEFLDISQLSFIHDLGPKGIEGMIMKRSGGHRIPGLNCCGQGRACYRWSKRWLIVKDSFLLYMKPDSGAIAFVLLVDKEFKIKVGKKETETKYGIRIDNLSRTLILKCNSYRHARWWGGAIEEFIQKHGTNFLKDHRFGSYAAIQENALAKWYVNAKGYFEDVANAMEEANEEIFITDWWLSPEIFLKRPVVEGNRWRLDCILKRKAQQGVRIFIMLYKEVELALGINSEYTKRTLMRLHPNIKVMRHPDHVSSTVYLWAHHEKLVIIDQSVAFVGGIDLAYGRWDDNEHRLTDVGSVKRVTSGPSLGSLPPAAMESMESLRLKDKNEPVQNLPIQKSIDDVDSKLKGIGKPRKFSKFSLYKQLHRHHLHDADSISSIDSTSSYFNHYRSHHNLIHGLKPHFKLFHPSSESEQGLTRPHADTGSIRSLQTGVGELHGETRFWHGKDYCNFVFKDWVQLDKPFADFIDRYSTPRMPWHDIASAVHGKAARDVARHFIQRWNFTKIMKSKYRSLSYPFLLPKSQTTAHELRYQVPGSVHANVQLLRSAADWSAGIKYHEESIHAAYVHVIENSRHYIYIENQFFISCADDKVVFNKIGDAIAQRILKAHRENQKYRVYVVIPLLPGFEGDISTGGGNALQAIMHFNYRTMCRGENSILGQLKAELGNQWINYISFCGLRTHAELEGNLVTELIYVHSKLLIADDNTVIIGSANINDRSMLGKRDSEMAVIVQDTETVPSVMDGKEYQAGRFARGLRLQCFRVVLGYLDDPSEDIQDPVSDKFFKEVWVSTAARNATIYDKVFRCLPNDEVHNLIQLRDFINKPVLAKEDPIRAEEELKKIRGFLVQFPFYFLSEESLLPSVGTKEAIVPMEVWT
Sequence of Phospholipase D2 (O14939 whole entry): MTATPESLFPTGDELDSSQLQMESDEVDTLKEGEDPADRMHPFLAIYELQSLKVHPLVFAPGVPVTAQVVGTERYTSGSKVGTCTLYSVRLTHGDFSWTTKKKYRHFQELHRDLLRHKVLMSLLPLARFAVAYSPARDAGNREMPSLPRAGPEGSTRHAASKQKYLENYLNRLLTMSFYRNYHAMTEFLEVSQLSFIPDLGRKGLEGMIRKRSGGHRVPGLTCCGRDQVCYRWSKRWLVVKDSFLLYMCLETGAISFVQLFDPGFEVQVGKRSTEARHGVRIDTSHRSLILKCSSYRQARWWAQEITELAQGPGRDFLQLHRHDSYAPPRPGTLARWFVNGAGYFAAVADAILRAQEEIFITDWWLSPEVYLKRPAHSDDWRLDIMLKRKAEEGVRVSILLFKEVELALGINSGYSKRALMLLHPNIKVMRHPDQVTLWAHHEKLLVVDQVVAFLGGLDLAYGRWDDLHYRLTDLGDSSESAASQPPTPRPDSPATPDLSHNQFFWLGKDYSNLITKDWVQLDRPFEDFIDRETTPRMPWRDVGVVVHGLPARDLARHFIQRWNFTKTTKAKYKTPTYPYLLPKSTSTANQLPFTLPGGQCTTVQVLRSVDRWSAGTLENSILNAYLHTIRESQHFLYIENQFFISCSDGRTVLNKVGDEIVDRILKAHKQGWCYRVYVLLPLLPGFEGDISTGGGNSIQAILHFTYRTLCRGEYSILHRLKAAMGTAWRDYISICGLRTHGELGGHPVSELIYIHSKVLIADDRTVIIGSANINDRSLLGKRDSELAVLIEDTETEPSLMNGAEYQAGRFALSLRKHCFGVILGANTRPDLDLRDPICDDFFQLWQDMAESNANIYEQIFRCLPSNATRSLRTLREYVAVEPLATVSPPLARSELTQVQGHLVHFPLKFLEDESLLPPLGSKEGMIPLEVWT

For the compound `C=CCn1c(=N)c(S(=O)(=O)c2ccc(C)c(C)c2)cc2c(=O)n3ccccc3nc21`, the EC50 in assay [1] is 31.9 µM (inactive); in assay [2], 52.2 µM (inactive).

`Cc1ccc(C(=O)Cn2cc(-c3ccc(C)cc3)[n+]3c2CCCCC3)cc1`: the concentration for a half-maximal effect (EC50) was 17.3 µM (active) in the assay with BJ [3]; > 150 µM (inactive) in assay [4]; > 150 µM (not active) in the assay on BJ [7]; 1.32 µM (active) in assay [9]; 85.7 µM (active) in assay [10]; > 150 µM (not active) with BJ [11]. For the same compound, the AC50 was 40.5 µM (active) with A-375 [5], 3.63 µM (active) in assay [6] and 1.3 µM (active) in the assay with INS1. The IC50 in assay [8] is > 80 µM (inactive).

Consider `COc1ccc(-c2cc([C@H]3[C@@H]4C=CCC[C@@]4(C)C(=O)N3Cc3ccccc3)ccc2F)cc1`, for which the AC50 with Escherichia coli was 121 µM (active); in assay [12], 3.42 µM (active).

For `Cc1cc(N2CCOc3ccccc32)nc2ccccc12`, the IC50 in assay [13] was 24.5 µM (active); in [14] it was 12 µM (active).

Regarding `O=C(NCCN1CCN(c2ccncc2)CC1)c1cc2cc(F)ccc2[nH]1`, the figures for the IC50 at Phospholipase D2 and at Phospholipase D1 were 15 µM (active) and 3.6 µM (active), respectively.

For `O=C(N/N=C/c1ccccc1Cl)c1[nH]nc2c1CCCC2`, the AC50 in the assay with A-375 [15] is 48.5 µM (active); in assay [6], 7.97 µM (active). In addition, the 50% effective concentration (EC50) in the assay with BJ [3] is 16.4 µM (active); in [16], 16 µM (active); in the assay with BJ [7] it was > 150 µM (inconclusive); in assay [10] it was 15.8 µM (active); with BJ [11], 18.2 µM (active). For the same compound, the “Absolute IC50 (CHOP)” value in assay [17] came out at 10 µM. At X-box-binding protein 1, the “Absolute IC50 (XBP1)” value is 10 µM.

Turning to `CCN(CC)c1ccc(/C=N/NC(=S)NCc2ccc(OC)cc2)cc1`, the concentration at half-maximal activity (AC50) at CAAX prenyl protease 2 [18] is 13.6 µM (active); at CAAX prenyl protease 2 [19] it was 24.8 µM (active); on Trypsin it was 7.25 µM (active).
